From patent publication US4469707A, “Method for treatment of senile dementia” (Astra Lakemedel Aktiebolag, priority 1983, dated 1984)
Entries after “also recorded” stand apart in the source; their conditions may differ.

Tests used:
tremor = experiment: Tremor caused by alaproclate per se; format: in vivo, mice; conditions: in words
Procedure: Saline was administered as a blank. The tremor intensity was assessed visually for a 60 min period starting from the injection of oxotremorine and physostigmine respectively.

[1] = system: physostigmine induced tremor; experiment: Potentiation of physostigmine induced tremor; format: in vivo; conditions: mice; for Mean tremor score after pretreatment: score 0-2
Procedure: (§1) Saline was administered as a blank. The tremor intensity was assessed visually for a 60 min period starting from the injection of oxotremorine and physostigmine respectively. The following rating scores were used:
(§2) 1--moderate or discontinuous tremor of the head and forelimbs
(§3) 2--strong tremor involving the whole body

[2] = system: oxotremorine induced tremor; experiment: Potentiation of oxotremorine induced tremor; format: in vivo; conditions: mice; for Mean tremor score after pretreatment: score 0-2
Procedure: as §1, §2, §3

CC(N)C(=O)OC(C)(C)Cc1ccc(Cl)cc1 (stereo not drawn) [Alaproclate, 2-(4-chloro-phenyl)-1,1-dimethylethyl-2-aminopropanoate]
Tremor caused by the compound per se (tremor): does not cause tremor
Potentiation of physostigmine induced tremor ([1]; in words): able to enhance; also recorded: potentiates
Mean tremor score after pretreatment ([1]; alaproclate 20 mg/kg i.p., 5 min after physostigmine 200 μg/kg s.c.): 0,3
Mean tremor score after pretreatment ([1]; alaproclate 20 mg/kg i.p., 10 min after physostigmine 200 μg/kg s.c.): 0,8
Mean tremor score after pretreatment ([1]; alaproclate 20 mg/kg i.p., 15 min after physostigmine 200 μg/kg s.c.): 0,8
Mean tremor score after pretreatment ([1]; alaproclate 40 mg/kg i.p., 5 min after physostigmine 200 μg/kg s.c.): 0,3
Mean tremor score after pretreatment ([1]; alaproclate 40 mg/kg i.p., 10 min after physostigmine 200 μg/kg s.c.): 1,0
Mean tremor score after pretreatment ([1]; alaproclate 40 mg/kg i.p., 15 min after physostigmine 200 μg/kg s.c.): 0,7
Mean tremor score after pretreatment ([1]; alaproclate 40 mg/kg i.p., 30 min after physostigmine 200 μg/kg s.c.): 0,3
Mean tremor score after pretreatment ([1]; alaproclate 60 mg/kg i.p., 5 min after physostigmine 200 μg/kg s.c.): 0,7
Mean tremor score after pretreatment ([1]; alaproclate 60 mg/kg i.p., 10 min after physostigmine 200 μg/kg s.c.): 1,3
Mean tremor score after pretreatment ([1]; alaproclate 60 mg/kg i.p., 15 min after physostigmine 200 μg/kg s.c.): 0,8
Mean tremor score after pretreatment ([1]; alaproclate 60 mg/kg i.p., 30 min after physostigmine 200 μg/kg s.c.): 0,7
Potentiation of oxotremorine induced tremor ([2]; in words): able to enhance; also recorded: potentiates
Mean tremor score after pretreatment ([2]; alaproclate 20 mg/kg i.p., 10 min after oxotremorine 100 μg/kg s.c.): 0,7
Mean tremor score after pretreatment ([2]; alaproclate 20 mg/kg i.p., 15 min after oxotremorine 100 μg/kg s.c.): 1,0
Mean tremor score after pretreatment ([2]; alaproclate 20 mg/kg i.p., 30 min after oxotremorine 100 μg/kg s.c.): 0,8
Mean tremor score after pretreatment ([2]; alaproclate 40 mg/kg i.p., 5 min after oxotremorine 100 μg/kg s.c.): 0,3
Mean tremor score after pretreatment ([2]; alaproclate 40 mg/kg i.p., 10 min after oxotremorine 100 μg/kg s.c.): 1,0
Mean tremor score after pretreatment ([2]; alaproclate 40 mg/kg i.p., 15 min after oxotremorine 100 μg/kg s.c.): 1,3
Mean tremor score after pretreatment ([2]; alaproclate 40 mg/kg i.p., 30 min after oxotremorine 100 μg/kg s.c.): 1,2
Mean tremor score after pretreatment ([2]; alaproclate 40 mg/kg i.p., 60 min after oxotremorine 100 μg/kg s.c.): 0,5
Mean tremor score after pretreatment ([2]; alaproclate 60 mg/kg i.p., 5 min after oxotremorine 100 μg/kg s.c.): 0,1
Mean tremor score after pretreatment ([2]; alaproclate 60 mg/kg i.p., 10 min after oxotremorine 100 μg/kg s.c.): 1,0
Mean tremor score after pretreatment ([2]; alaproclate 60 mg/kg i.p., 15 min after oxotremorine 100 μg/kg s.c.): 1,5
Mean tremor score after pretreatment ([2]; alaproclate 60 mg/kg i.p., 30 min after oxotremorine 100 μg/kg s.c.): 1,6
Mean tremor score after pretreatment ([2]; alaproclate 60 mg/kg i.p., 60 min after oxotremorine 100 μg/kg s.c.): 1,0
